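These data come from cells grown in 96-well plates and exposed to compound for 48 hours at five concentrations. GI50 is the concentration that inhibits growth by half. TGI: concentration producing complete growth inhibition.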
Columns and labels:
Assay in all cases: NCI tumour cell line growth inhibition, 48 h
SW-620 colon = system: SW-620 colon
K-562 leukemia = system: K-562 leukemia
TK-10 renal = system: TK-10 renal
UACC-62 melanoma = system: UACC-62 melanoma
SNB-19 CNS = system: SNB-19 CNS
UACC-257 melanoma = system: UACC-257 melanoma
HOP-92 NSCLC = system: HOP-92 NSCLC
M14 melanoma = system: M14 melanoma
HCT-15 colon = system: HCT-15 colon

Row | Structure (SMILES) | GI50 (SW-620 colon) | TGI (SW-620 colon) | GI50 (K-562 leukemia) | TGI (K-562 leukemia) | GI50 (TK-10 renal) | TGI (TK-10 renal) | GI50 (UACC-62 melanoma) | TGI (UACC-62 melanoma) | GI50 (SNB-19 CNS) | TGI (SNB-19 CNS) | GI50 (UACC-257 melanoma) | TGI (UACC-257 melanoma) | GI50 (HOP-92 NSCLC) | TGI (HOP-92 NSCLC) | TGI (M14 melanoma) | TGI (HCT-15 colon) | GI50 (M14 melanoma) | GI50 (HCT-15 colon)
1 | CCN(CC)CCN1C(=O)c2c(c3c4ccccc4[nH]c3c3ccc4ccccc4c23)C1=O | 1.31 µM | 2.97 µM | 1.82 µM | 5.32 µM | 1.77 µM | 3.34 µM | 1.57 µM | 2.97 µM | 1.5 µM | 2.88 µM | 1.73 µM | 3.27 µM | 1.42 µM | 2.95 µM | – | – | – | –
2 | Cc1nc(C)c(N2CCNCC2)c(=O)[nH]1 | – | > 100 µM | – | > 100 µM | – | > 100 µM | – | > 100 µM | – | > 100 µM | – | > 100 µM | – | > 100 µM | > 100 µM | > 100 µM | – | –
3 | O=c1oc2ccccc2cc1-c1cn2c(n1)sc1ccccc12 | – | > 100 µM | – | > 100 µM | – | > 100 µM | – | > 100 µM | – | – | – | > 100 µM | – | > 100 µM | > 100 µM | > 100 µM | – | –
4 | COc1ccc2c3c([nH]c2c1)CCN(CCCC(=O)c1ccc(F)cc1)C3 | – | 32.8 µM | – | 44.9 µM | – | 29.1 µM | – | 27.4 µM | – | 28.2 µM | – | 31.7 µM | – | – | 28.9 µM | 36.7 µM | – | –
5 | CC(C)=CCc1[nH]c2ccccc2c1C1=C(O)C(=O)C(c2c(CC=C(C)C)[nH]c3ccccc23)=C(O)C1=O | – | 14.9 µM | – | 6.31 µM | – | – | – | 2.94 µM | – | 16.4 µM | – | 6.95 µM | – | 4.04 µM | 15.6 µM | 3.48 µM | – | –
6 | COC(=O)N[C@H](C(=O)O)C(C)O[Si](C)(C)C(C)(C)C (some centres not stated) | – | > 100 µM | – | > 100 µM | – | > 100 µM | – | > 100 µM | – | > 100 µM | – | > 100 µM | – | – | – | > 100 µM | – | –
7 | Cc1cccc(N2C(=O)C3c4[nH]c5ccccc5c4C4CCC(C(C)(C)C)CC4C3C2=O)c1 (configuration not stated) | – | 24.1 µM | – | 17.4 µM | – | 27.2 µM | – | 49 µM | – | 26 µM | – | 44.6 µM | – | – | 28.3 µM | > 100 µM | – | –
8 | CCOC(=O)C(Cc1ccc(OC(=O)OC(C)(C)C)cc1)NC(=O)OC(C)(C)C (configuration not stated) | – | > 100 µM | – | > 100 µM | – | > 100 µM | – | > 100 µM | – | > 100 µM | – | 54.3 µM | – | – | 79.9 µM | > 100 µM | – | –
9 | Cn1c(CO)ccc1-c1ccc(-c2ccc[se]2)[se]1 | – | 77.8 µM | – | > 43.3 µM | – | – | – | – | – | > 100 µM | – | – | – | – | > 100 µM | > 100 µM | – | –
10 | CC(=O)NC(C)(C)C1CCC(C)=C(c2ccccc2)C1 (configuration not stated) | – | > 100 µM | – | > 100 µM | – | > 100 µM | – | > 100 µM | – | > 100 µM | – | > 100 µM | – | 68.4 µM | > 100 µM | > 100 µM | – | –
11 | C=C1CC(Cn2ccc(=O)[nH]c2=O)(c2ccc(Cl)cc2)OC1=O (configuration not stated) | – | 4.31 µM | – | 5.38 µM | – | 4.72 µM | – | 13.4 µM | – | > 71.1 µM | – | 12.4 µM | – | 3.89 µM | 12.9 µM | 6.91 µM | – | –
12 | CC(C)=CCC/C(C)=C/COc1c2ccoc2cc2oc(=O)ccc12 | – | > 100 µM | – | > 100 µM | – | > 100 µM | – | 38.3 µM | – | > 100 µM | – | 90.4 µM | – | > 100 µM | 89.1 µM | > 100 µM | – | –
13 | CC1(C)CCC(C)(C)C1C(=O)NC(O)C(=O)O (configuration not stated) | – | > 100 µM | – | > 100 µM | – | > 100 µM | – | > 100 µM | – | > 100 µM | – | – | – | – | > 100 µM | > 100 µM | – | –
14 | COc1cc(OC)cc(-c2n/c(=C\c3c(O)[nH]c4ccc(OC)cc34)cc3c2=Nc2ccccc2-3)c1 | 3.92 µM | 22.4 µM | 2.65 µM | 6.64 µM | 3.82 µM | 9.86 µM | 18.3 µM | 36 µM | 5.82 µM | 27.7 µM | 23.3 µM | 49.8 µM | – | – | 4.18 µM | 15 µM | 2.24 µM | 3.85 µM
15 | Nc1[nH]nc2nc3ccccc3nc12 | – | > 100 µM | – | > 100 µM | – | > 100 µM | – | > 100 µM | – | > 100 µM | – | > 100 µM | – | > 100 µM | – | > 100 µM | – | –
16 | c1csc(-c2ccsc2-c2cccs2)c1 | – | > 100 µM | – | – | – | > 100 µM | – | > 100 µM | – | – | – | > 100 µM | – | > 100 µM | > 100 µM | > 100 µM | – | –
17 | OCCN(/N=C\c1ccc2ccccc2c1)C1=NCCN1 | – | 55.6 µM | – | 30.4 µM | – | > 100 µM | – | 48.6 µM | – | > 100 µM | – | – | – | 53.1 µM | 35 µM | > 100 µM | – | –
18 | Cc1csc2c1-n1cccc1C2=O | – | > 100 µM | – | > 100 µM | – | > 100 µM | – | > 100 µM | – | > 100 µM | – | > 100 µM | – | – | > 100 µM | > 100 µM | – | –
19 | O=C(NC(=O)c1cc(-c2ccccc2)n[nH]1)c1ccccc1 | – | > 100 µM | – | > 100 µM | – | > 100 µM | – | > 100 µM | – | – | – | > 100 µM | – | > 100 µM | > 100 µM | > 100 µM | – | –
20 | O=C(Nc1cccc([N+](=O)[O-])c1)c1n[nH]n(-c2cccc([N+](=O)[O-])c2)c1=O | – | > 100 µM | – | > 100 µM | – | – | – | > 100 µM | – | > 100 µM | – | > 100 µM | – | – | > 100 µM | – | – | –
21 | CC1CC/C(=C\c2ccc(F)cc2)C(=O)/C1=C/c1ccc(F)cc1 (configuration not stated) | – | 87.6 µM | – | > 100 µM | – | 8.64 µM | – | 24.7 µM | – | 35.5 µM | – | 29.9 µM | – | – | 39.4 µM | 5.39 µM | – | –
22 | COC(=O)c1c(O)ccc2[nH]c3c(O)c4ccccc4cc3c12 | – | – | – | > 100 µM | – | > 100 µM | – | > 100 µM | – | > 100 µM | – | 94.5 µM | – | 61.8 µM | 67.4 µM | 48.1 µM | – | –
23 | NNC(=S)NCCNC(=S)NN | – | > 100 µM | – | – | – | – | – | > 100 µM | – | > 100 µM | – | > 100 µM | – | – | > 100 µM | – | – | –
24 | CC(C)(C)OC(=O)CN1CCNCCN(CC(=O)OC(C)(C)C)CCNCC1 | – | > 100 µM | – | > 100 µM | – | > 100 µM | – | > 100 µM | – | > 100 µM | – | > 100 µM | – | > 100 µM | – | > 100 µM | – | –
25 | Cc1ccc(C(=O)Nc2ccc(CP(=O)(O)O)cc2CP(=O)(O)O)cc1NC(=O)Nc1cc(C(=O)Nc2ccc(CP(=O)(O)O)cc2CP(=O)(O)O)ccc1C | – | > 100 µM | – | > 100 µM | – | > 100 µM | – | > 100 µM | – | > 100 µM | – | > 100 µM | – | – | > 100 µM | > 100 µM | – | –
